Assay results as given in article PMC9202945 (2022).
One block for each molecule: values may come before it.

Key:
[1] = tested on: PQS23 (FRET-labelled) (DNA, G4) AGGGGGCTGGGCCGGGGACCCGGGAGGGGTCGGGACGGGGCGGGG; test: fluorescence thermal shift assay; details: 100 μM compound, 0.5 μM DNA, phosphate buffer
[2] = tested on: Cy5-hTERT-FL (DNA, G4) GGGGAGGGGCTGGGAGGGCCCGGAGGGGGCTGGGCCGGGGACCCGGGAGGGGTCGGGACGGGGCGGGG; test: microscale thermophoresis; details: 25 mM KCl, pH 7.2, 1.5% DMSO
[3] = tested on: Ctrl HP (FRET-labelled) (DNA, hairpin) GCATGCTTTTGCATGC; test: fluorescence thermal shift assay; details: 100 μM compound, 0.5 μM DNA, phosphate buffer
[4] = tested on: GC duplex (DNA, hairpin) GCGCGCGCGCTTTTGCGCGCGCGC; test: competition dialysis; details: 185 mM K+, phosphate buffer, RT, 5 μM compound, 75 μM DNA as base pairs, per base pair
[5] = tested on: PQS23 (DNA, G4) AGGGGGCTGGGCCGGGGACCCGGGAGGGGTCGGGACGGGGCGGGG; test: competition dialysis; details: 185 mM K+; phosphate buffer, RT, 5 μM compound, 75 μM DNA as tetrads
[6] = tested on: H-Tel G4 (DNA, G4) AGGGTTAGGGTTAGGGTTAGGG; test: competition dialysis; details: 185 mM K+, phosphate buffer, RT, 5 μM compound, 75 μM DNA as tetrads, per tetrad, per base
[7] = tested on: c-Myc G4 (DNA, G4) TGAGGGTGGGTAGGGTGGGTAA; test: competition dialysis; details: 185 mM K+, phosphate buffer, RT, 5 μM compound, 75 μM DNA as tetrads, per tetrad, per base
[8] = tested on: PQS12 (DNA, G4) AGGGGAGGGGCTGGGAGGGCCCGGAGGGGGCTGGGCCGGGGACCCGGGA; test: competition dialysis; details: 185 mM K+; phosphate buffer, RT, 5 μM compound, 75 μM DNA as tetrads
[9] = tested on: TERT-FL (hTERT-FL) (DNA, G4) GGGGAGGGGCTGGGAGGGCCCGGAGGGGGCTGGGCCGGGGACCCGGGAGGGGTCGGGACGGGGCGGGG; test: competition dialysis; details: 185 mM K+, phosphate buffer, RT, 5 μM compound, 75 μM DNA as tetrads, per tetrad, per base
[10] = tested on: AT duplex (DNA, hairpin) ATATATATATCCCCATATATATAT; test: competition dialysis; details: 185 mM K+, phosphate buffer, RT, 5 μM compound, 75 μM DNA as base pairs, per base pair
[11] = tested on: GC Triplex (DNA, triplex) CCCCCCCCTTTTGGGGGGGGTTTTCCCCCCCC; test: competition dialysis; details: 185 mM K+, phosphate buffer, RT, 5 μM compound, 75 μM DNA as triplets, per triplet, per base
[12] = tested on: TERT-FL (hTERT-FL) (DNA, G4) GGGGAGGGGCTGGGAGGGCCCGGAGGGGGCTGGGCCGGGGACCCGGGAGGGGTCGGGACGGGGCGGGG; test: CD melting, 260 nm; details: 20 mM KCl; 25 μM compound, 1.1 μM DNA
[13] = tested on: PQS12 (FRET-labelled) (DNA, G4) AGGGGAGGGGCTGGGAGGGCCCGGAGGGGGCTGGGCCGGGGACCCGGGA; test: fluorescence thermal shift assay; details: 100 mM K+; 100 μM compound, 0.5 μM DNA, phosphate buffer

SMILES: CCOc1ccccc1CCNc1nc(CCN)nc2ccccc12
binding ([1]; K+ (concentration not stated)): yes
Kd ([2]; BPEK buffer (8 mM sodium phosphate, 1 mM EDTA), 20 nM DNA): 3 µM
binding ([3]; K+ (concentration not stated)): no

SMILES: CN(CCc1ccccc1)c1nc(-c2ccc(F)cc2)nc2ccccc12
binding ([2]; BPEK buffer, up to 200 μM, no reliable fit): no

SMILES: Cc1nc(NCCc2ccccc2)c2ccccc2n1
Kd ([2]; BPEK buffer, 20 nM DNA): 13 [7, 24] μM

SMILES: NC(N)=NCCCS(=O)(=O)Nc1ccc(Nc2c3ccccc3nc3cc([N+](=O)[O-])ccc23)cc1
apparent Kd ([2]; BPEK buffer, 20 nM DNA, without calf thymus DNA, apparent): 2 µM

Second part, the molecule after the results:

binding ([1]; K+ (concentration not stated)): yes
Kd ([2]; BPEK buffer, 20 nM DNA): 17 [7, 45] μM
binding ([3]; K+ (concentration not stated)): no
SMILES: CCCC(CCC)C1CCN(c2nc(CCN)nc3ccccc23)CC1

Kd ([2]; BPEK buffer, 20 nM DNA): 5 [1, 23] μM
SMILES: CCc1nc(N(CCC(=O)NC(C)C)CCc2ccccc2)c2ccccc2n1

apparent Kd [4]: > 140 µM
binding [5]: yes
apparent Kd [6]: > 140 µM
apparent Kd [7]: > 140 µM
binding [8]: yes
apparent Kd [9]: 24 µM
apparent Kd [10]: > 140 µM
apparent Kd [11]: > 140 µM
Kd ([2]; BPEK buffer, 20 nM DNA): 8 [4, 19] μM
binding [12]: yes
SMILES: CN(CCc1ccccc1)c1nc(CCN)nc2ccccc12

apparent Kd [4]: > 140 µM
apparent Kd [6]: > 140 µM
apparent Kd [7]: > 140 µM
apparent Kd [9]: 22 µM
apparent Kd [10]: > 140 µM
apparent Kd [11]: > 140 µM
binding [12]: yes
SMILES: COCCN1CC2CCC1CN(c1nc(N(C)C)nc(C)c1C)C2 (stereo not drawn)

binding [13]: no
binding ([1]; 100 mM K+): yes
binding ([3]; 100 mM K+): no
SMILES: Cc1cnccc1NCCNC(=O)c1cccc(CC2CCNCC2)c1
